Assay results published in publication PMC12609579, “Acute Myeloid Leukemia: A Key Role of DGKα and DGKζ in Cell Viability” (Cells, 2025).
Read-outs that look alike come from different tables or passages of the source.

How the values were obtained:
K562 cells = assay: Annexin V-FITC/7AAD apoptosis/necrosis flow cytometry, K562; format: cell-based, human; conditions: K562, 24 h
Protocol: To determine the type of cell death, apoptotic and necrotic cells were detected by flow cytometry using the Apoptosis Detection Kit Annexin V-FITC (Invitrogen, Carlsbad, CA, USA). For each sample, 500,000 cells, pretreated for 24 h, were stained according to manufacturer’s instructions, using 7-aminoactinomycin D (7AAD) instead of propidium iodide. Samples were analyzed on a BD FACS Symphony A5 flow cytometer (Franklin Lakes, NJ, USA) using BD FACSDiva 9.1 software. Data were gated based on FSC-A vs. FSC-H to exclude cell doublets and FSC-A vs. SSC-A to exclude debris. Different populations were identified as: live (Annexin V− and 7AAD−), necrotic (Annexin− and 7AAD+), early apoptotic (Annexin V+ and 7AAD−) and late apoptotic (Annexin+ and 7AAD+). Data are shown as mean ± SD of at least three independent experiments analyzed by GraphPad Prism 10 (control vs. [inhibitor]).

THP-1 cells = assay: Proteomic profiling (DIA mass spectrometry) of treated THP-1 cells vs DMSO; format: cell-based, human
Protocol: Cells were lysed in RIPA buffer and sonicated. Proteins were precipitated with cold acetone, pelleted, and resuspended. Reduction was carried out in 25 µL of 100 mM NH4HCO3 with 2.5 µL of 200 mM DTT (Merck, St. Louis, MO, USA) at 60 °C for 45 min, followed by alkylation with 10 µL of 200 mM iodoacetamide (Merck, St. Louis, MO, USA) for 1 h at room temperature in the dark. Excess iodoacetamide was quenched by adding 200 mM DTT. Proteins were then digested with trypsin, dried by SpeedVac, and desalted. Peptides were analyzed on an Ultimate 3000 RSLCnano system coupled to an Orbitrap Exploris 480 equipped with FAIMS (all from Thermo Fisher Scientific). Samples were loaded onto a reversed-phase C18 column (15 cm × 75 µm i.d., Thermo Fisher Scientific) and eluted at 500 nL min^−1 using a 6–95% solvent B gradient over 41 min, followed by 1 min of re-equilibration at 6% B. Data were acquired in positive mode with a spray voltage of 2500 V and FAIMS in standard resolution at a compensation voltage of −45 V. Data-independent acquisition (DIA) was performed with a precursor m/z range of 400–900, using 8 m/z isolation windows with 1 m/z overlap, HCD collision energy of 27%, Orbitrap resolution of 30,000, RF Lens 50%, normalized AGC target 1000, maximum injection time 25 ms, and 1 microscan. DIA data were processed with DIA-NN (v1.8.1) in library-free mode, applying deep-learning prediction for spectra, retention times, and ion mobility. Searches assumed Trypsin/P specificity, precursor charges 1–4, peptide lengths of 7–30 amino acids, and precursor m/z values of 400–900, allowing up to two missed cleavages. Carbamidomethylation of Cys was set as a fixed modification; Met oxidation was set as a variable modification (maximum two per peptide). The false discovery rate was maintained at 1%.
Normalized data from two independent proteomic experiments were obtained, each comparing a treatment condition to DMSO: (1) ritanserin vs. DMSO and (2) BAY 2965501 vs. DMSO. For each condition, three biological replicates were analyzed.
Protein abundance differences were calculated separately for each treatment relative to DMSO using a t-test, generating log2 fold change (log2FC) and adjusted p-values (p-adj). All proteins identified by UniProt ID were annotated with the corresponding gene symbol using QIAGEN Ingenuity Pathway Analysis (IPA; QIAGEN Inc., https://digitalinsights.qiagen.com/IPA, accessed on 5 June 2025). Proteins lacking a gene symbol were annotated as NA [42].
Data were filtered to include only proteins with |log2FC| > 2 and p-adj < 0.05, and retaining those annotated with a gene symbol.
Cells treated with equal amounts of DMSO (vehicle) were used as controls.

KG-1α = test system: KG-1α; design: method as in PMID 37392305; conditions: read-out: IC50 (cytotoxic effects), cited from earlier work
[1] = concentration close to IC50, representative plot

Cc1nc2sccn2c(=O)c1CCN1CCC(=C(c2ccc(F)cc2)c2ccc(F)cc2)CC1 [ritanserin]
Early apoptotic (Annexin V+ 7AAD-) (K562 cells; [1]): 6.2%
Late apoptotic (Annexin+ 7AAD+) (K562 cells; [1]): 1.7%
Live cells (Annexin V- 7AAD-) (K562 cells; [1]): 90.1%
Necrotic (Annexin- 7AAD+) (K562 cells; [1]): 2.0%
modality of cell death (K562 cells; concentration near IC50): early apoptosis
number of significantly downregulated proteins (THP-1 cells; THP-1, 24 h, ritanserin 50 µM, BAY 2965501 75 µM, vs DMSO): approximately 1200
number of significantly upregulated proteins (THP-1 cells; THP-1, 24 h, ritanserin 50 µM, vs DMSO): 14
log2FC A2M (P01023) protein abundance vs DMSO (THP-1 cells; THP-1, ritanserin 50 µM, 24 h): 4.998
log2FC AAAS (Q9NRG9) protein abundance vs DMSO (THP-1 cells; THP-1, ritanserin 50 µM, 24 h): 0.1245
log2FC AACS (Q86V21) protein abundance vs DMSO (THP-1 cells; THP-1, ritanserin 50 µM, 24 h): 1.025
log2FC AAK1 (Q2M2I8) protein abundance vs DMSO (THP-1 cells; THP-1, ritanserin 50 µM, 24 h): -2.961
log2FC AAMDC (Q9H7C9) protein abundance vs DMSO (THP-1 cells; THP-1, ritanserin 50 µM, 24 h): -1.488
number of differentially abundant proteins (THP-1 cells; THP-1, |log2FC| > 2 and p-adj < 0.05, with gene symbol, vs DMSO): 1210
IC50 (KG-1α; 24 h): 38 µM
IC50 (KG-1α; 72 h): 26 µM
